How the values were obtained:
prostate cancer = experiment: Treatment of patients with prostate cancer (Working Examples); format: in vivo, human
[1] = tested on: PSA protein expression in LNCaP cells; experiment: PSA protein expression in LNCaP cells (immunoblot); format: cell-based; settings: nitric oxide synthesis inhibited; DHT 10 nmol/L 24 hours
Method: The experiments of Background Example 4 were repeated but instead of determining androgen receptor activation, PSA level was measured by PSA protein expression in LNCaP cells. LNCaP cells were incubated in phenol red-free RPMI cell culture medium containing 5% charcoal-stripped fetal bovine serum (CSS) for 48 hours and then treated with dihydrotestosterone (DHT) (10 nmol/L) or vehicle control (ethanol) for 24 hours. Immunoblots were conducted using anti-PSA antibodies to measure PSA protein expression. Same filters were immunoblotted using anti-actin antibodies as control to establish equal loading of proteins.

[2] = tested on: e-NOS overexpressing prostate cancer cells; settings: 5-10 nmol/L
Method: (§1) Cell proliferation was determined in cellular assays carried out as follows:
(§2) LNCaP cells (obtained from ATCC) and seeded at 2.5×10^4/well were incubated in charcoal-stripped serum for 24-48 hours prior to stimulation with DHT (5-10 nmole/L) for an additional 48 hours. The number of viable cells (that exclude trypan blue) was counted using a light microscope and a hemocytometer.

LNCaP cells = settings: 5-10 nmol/L, 48 hours, wild type cells
Method: as §1, §2

androgen receptor = settings: stimulated 24 hours
Method: A luciferase reporter assay as described in Kasbohm, E. A., et al., Journal of Biological Chemistry 289,11583-11589 (2005), was used to detect androgen receptor activation.
As a control, the following was carried out. Androgen receptor in the form of prostate cancer cells was incubated with androgen under the following conditions.
Cells were seeded in 100-mm dishes and transfected at 70% confluence using DMRIE-C Reagent (Invitrogen). Transfections were carried out with cDNAs encoding the probasin or ARR2 luciferase (1 μg) and SV40-Renilla luciferase reporter plasmid (Promega) (10 ng) together with empty vector or the indicated gene of interest using a total of 6 μg of DNA/plate. At the end of transfection, cells were equally divided into 6-well plates and allowed to attach. The culture medium was replaced after 24 hours with starvation medium (phenol red-free RPMI 1640 cell culture medium) containing 5% charcoal-stripped fetal bovine serum, 1% penicillin/streptomycin, and 10 mM HEPES buffer, pH 7.5), and identical cell populations, in duplicate, were stimulated with androgen or vehicle for an additional 24 hours. Luciferase activities in cell lysates were measured using the Dual Luciferase assay system (Promega; Madison, Wis.) and were normalized by the Renilla activities and protein concentrations of the samples.

breast cancer = experiment: Treatment of patient with breast cancer (Working Example X); format: in vivo, human; settings: person, 40 mg PO BID, over 6 months
[3] = molecular target: T1, androgen receptor protein (Homo sapiens, UniProt P10275); experiment: S-nitrosylation of purified androgen receptor, biotin switch assay; format: biochemical; settings: anaerobic conditions; GSH as control
T1 construct: purchased Cambridge Bioscience, England
T1 sequence (P10275 1-920): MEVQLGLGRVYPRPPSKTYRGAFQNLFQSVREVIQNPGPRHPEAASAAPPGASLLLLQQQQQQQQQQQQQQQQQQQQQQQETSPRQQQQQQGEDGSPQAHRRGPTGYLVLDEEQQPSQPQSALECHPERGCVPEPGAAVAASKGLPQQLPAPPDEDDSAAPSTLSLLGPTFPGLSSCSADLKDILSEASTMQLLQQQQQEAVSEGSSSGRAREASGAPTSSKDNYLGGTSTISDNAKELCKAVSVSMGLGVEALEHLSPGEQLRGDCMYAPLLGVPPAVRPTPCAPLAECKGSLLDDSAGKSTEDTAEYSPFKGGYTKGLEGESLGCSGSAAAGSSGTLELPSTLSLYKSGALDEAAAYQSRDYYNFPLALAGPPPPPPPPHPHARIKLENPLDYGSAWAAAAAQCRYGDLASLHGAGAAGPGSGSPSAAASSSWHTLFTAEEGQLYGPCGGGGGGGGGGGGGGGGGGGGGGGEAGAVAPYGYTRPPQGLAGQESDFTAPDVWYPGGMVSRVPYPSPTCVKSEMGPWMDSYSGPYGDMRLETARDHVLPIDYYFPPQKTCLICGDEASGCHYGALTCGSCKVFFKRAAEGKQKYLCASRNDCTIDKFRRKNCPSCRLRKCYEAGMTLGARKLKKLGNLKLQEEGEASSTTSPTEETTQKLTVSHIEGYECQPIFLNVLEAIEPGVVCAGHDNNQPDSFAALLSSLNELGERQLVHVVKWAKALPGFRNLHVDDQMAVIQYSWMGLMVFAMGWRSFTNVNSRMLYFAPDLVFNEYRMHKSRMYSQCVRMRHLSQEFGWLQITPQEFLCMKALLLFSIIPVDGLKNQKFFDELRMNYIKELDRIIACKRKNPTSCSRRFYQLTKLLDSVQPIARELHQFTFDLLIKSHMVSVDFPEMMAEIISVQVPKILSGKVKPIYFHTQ
From the text: Purified androgen receptor protein (obtained from Cambridge Bioscience, England) was exposed to nitric oxide by means of contact with nitrosoglutathione (GSNO) under anaerobic conditions. Glutathione (GSH) was used as a control. […] Cell Biol 3, 193-197 (2001).

**Q.** Which PSA level drop (prostate cancer; person, 150 mg orally 4 times/day, over 4 months) does the source give for `N[C@H](CCC(=O)N[C@H](CS)C(=O)NCC(=O)O)C(=O)O` [D-glutathione] here?
**A.** The PSA level drop was 50%.

**Q.** How did the PSA expression [1] turn out when `COC(=O)[C@@H](N)CCCNC(=N)N[N+](=O)[O-]` [L-NAME] was run?
**A.** Its PSA expression is “more PSA was expressed”.

**Q.** `C[C@]12CCC(=O)C[C@@H]1CC[C@@H]1[C@@H]2CC[C@]2(C)[C@@H](O)CC[C@@H]12` [androgen, dihydrotestosterone] was tested. Which cell growth [2] did it give?
**A.** The cell growth was “no effect on cell growth”.

**Q.** And the cell growth (LNCaP cells)?
**A.** Its cell growth is “increased cell growth”.

**Q.** What about the “androgen receptor activation by androgen (control case)” value (androgen receptor) of the same molecule?
**A.** The value was “activated androgen receptor”.

**Q.** How did the disease course (prostate cancer; person with body metastases, busaralin treatment) turn out when `CCNC(=O)[C@@H]1CCCN1C(=O)[C@H](CCCNC(=N)N)NC(=O)[C@H](CC(C)C)NC(=O)[C@@H](COC(C)(C)C)NC(=O)[C@H](Cc1ccc(O)cc1)NC(=O)[C@H](CO)NC(=O)[C@H](Cc1c[nH]c2ccccc12)NC(=O)[C@H](Cc1cnc[nH]1)NC(=O)[C@@H]1CCC(=O)N1` [busaralin] was run?
**A.** Its disease course is “the disease progresses”.

**Q.** Which PSA level (prostate cancer; person, 20 mg PO BID, over 3 months) does the source give for `O=[N+]([O-])O[C@H]1CO[C@H]2[C@@H]1OC[C@H]2O[N+](=O)[O-]` [isosorbide dinitrate] here?
**A.** The PSA level was “stabilizes”.

**Q.** For `O=[N+]([O-])O[C@@H]1CO[C@H]2[C@@H]1OC[C@@H]2O` [isosorbide mononitrate], which PSA level decline (prostate cancer; person, 40 mg PO BID, 3 months) is on record?
**A.** The PSA level decline was 50%.

**Q.** And the lung metastases (breast cancer)?
**A.** The lung metastases was “regress”.

**Q.** Which “progression of the disease measured by PSA and bony metastases” value (prostate cancer; topical 0.8 mg/hour, after progression on busaralin) does the source give for `O=[N+]([O-])OCC(CO[N+](=O)[O-])O[N+](=O)[O-]` [nitroglycerin] here?
**A.** The value was “slows”.

**Q.** How did the PSA level decrease (prostate cancer; human, in vivo, po) turn out when `N[C@@H](CCC(=O)N[C@@H](CSN=O)C(=O)NCC(=O)O)C(=O)O` [nitrosoglutathione] was run?
**A.** The PSA level decrease was 50%.

**Q.** What about the “S-nitrosylation of androgen receptor” value [3] of the same molecule?
**A.** The value was “S-Nitrosylation of androgen receptor was detected”.

Source: patent publication US20080025972A1, “Treating sex steriod responsive disorders” (priority 2006, published 2008)
